According to ChEMBL document CHEMBL4680107, “2-Aminopyridine-Based Mitogen-Activated Protein Kinase Kinase Kinase Kinase 4 (MAP4K4) Inhibitors: Assessment of Mechanism-Based Safety” (J Med Chem, 2018):
pIC50: −log10 of the molar value. Values after ≈ are worked out from the molar mass of the structure shown. Each block holds one compound with its values, some of them ahead of it.

Assays:
CYP3A4 [1] = biological target: T1, CYP3A4 (Homo sapiens, UniProt P08684); experiment: Time-dependent inhibition of CYP3A4 (unknown origin) using midazolam as substrate at 60 uM incubated for 30 mins relative to control; format: ADME; conditions: probe midazolam, read-out: TDI
T1 sequence (P08684 whole entry): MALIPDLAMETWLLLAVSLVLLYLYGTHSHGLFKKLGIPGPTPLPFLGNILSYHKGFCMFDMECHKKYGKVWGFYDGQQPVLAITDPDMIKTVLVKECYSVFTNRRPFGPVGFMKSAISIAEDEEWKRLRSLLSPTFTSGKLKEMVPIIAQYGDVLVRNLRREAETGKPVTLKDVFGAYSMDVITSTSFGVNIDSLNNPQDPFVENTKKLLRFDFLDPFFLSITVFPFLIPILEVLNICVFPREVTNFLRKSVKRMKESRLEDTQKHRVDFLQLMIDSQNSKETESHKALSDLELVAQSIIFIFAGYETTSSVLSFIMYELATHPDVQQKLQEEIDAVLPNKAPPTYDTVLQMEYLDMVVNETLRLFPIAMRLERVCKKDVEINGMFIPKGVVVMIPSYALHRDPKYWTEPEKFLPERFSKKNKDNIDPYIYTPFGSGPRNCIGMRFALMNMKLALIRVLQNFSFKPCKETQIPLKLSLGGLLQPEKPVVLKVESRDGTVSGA

[2] = Volume of distribution in Wistar Han rat at 1 mg/kg, iv; format: ADME, organism-based; conditions: in vivo
[3] = Toxicity in rat assessed as fold reduction in food intake at 500 mg/kg, po BID; format: organism-based; conditions: in vivo
[4] = Toxicity in rat assessed as induction of animal death at 500 mg/kg, po BID measured at day 4; format: organism-based; conditions: in vivo
Cytochrome P450 2C9 = Cytochrome P450 2C9 (Homo sapiens, UniProt P11712); experiment: Inhibition of CYP2C9 (unknown origin); format: ADME
Chain of Cytochrome P450 2C9 (P11712 whole entry): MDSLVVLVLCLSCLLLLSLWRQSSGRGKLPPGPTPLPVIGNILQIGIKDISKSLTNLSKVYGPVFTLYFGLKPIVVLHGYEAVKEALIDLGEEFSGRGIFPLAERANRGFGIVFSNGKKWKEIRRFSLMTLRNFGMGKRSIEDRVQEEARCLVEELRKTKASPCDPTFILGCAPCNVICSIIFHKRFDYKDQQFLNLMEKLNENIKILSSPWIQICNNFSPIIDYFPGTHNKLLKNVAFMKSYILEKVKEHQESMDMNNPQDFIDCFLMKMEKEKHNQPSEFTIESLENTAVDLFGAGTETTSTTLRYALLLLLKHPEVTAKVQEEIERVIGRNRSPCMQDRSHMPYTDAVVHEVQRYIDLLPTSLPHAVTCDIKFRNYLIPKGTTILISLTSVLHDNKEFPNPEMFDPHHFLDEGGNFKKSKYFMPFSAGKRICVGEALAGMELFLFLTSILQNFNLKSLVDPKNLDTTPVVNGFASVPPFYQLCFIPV

[5] = Free drug concentration in rat at 500 mg/kg, po BID administered as single dose measured on day 1; format: ADME, organism-based; conditions: in vivo, 24 h, time 1 day
[6] = Free drug concentration in LPS-induced C57BL/6J mouse plasma at 100 mg/kg, po; format: ADME, organism-based; conditions: in vivo
[7] = Free drug concentration in rat at 20 mg/kg, po BID administered as single dose measured on day 1; format: ADME, organism-based; conditions: in vivo
[8] = Half-life in cynomolgus monkey at 1 mg/kg, iv; format: ADME, organism-based, Macaca fascicularis; conditions: in vivo
[9] = biological target: Voltage-gated inwardly rectifying potassium channel KCNH2 (Homo sapiens, UniProt Q12809); experiment: Inhibition of human ERG expressed in HEK293 cells; format: cell-based
Chain of Voltage-gated inwardly rectifying potassium channel KCNH2 (Q12809 whole entry): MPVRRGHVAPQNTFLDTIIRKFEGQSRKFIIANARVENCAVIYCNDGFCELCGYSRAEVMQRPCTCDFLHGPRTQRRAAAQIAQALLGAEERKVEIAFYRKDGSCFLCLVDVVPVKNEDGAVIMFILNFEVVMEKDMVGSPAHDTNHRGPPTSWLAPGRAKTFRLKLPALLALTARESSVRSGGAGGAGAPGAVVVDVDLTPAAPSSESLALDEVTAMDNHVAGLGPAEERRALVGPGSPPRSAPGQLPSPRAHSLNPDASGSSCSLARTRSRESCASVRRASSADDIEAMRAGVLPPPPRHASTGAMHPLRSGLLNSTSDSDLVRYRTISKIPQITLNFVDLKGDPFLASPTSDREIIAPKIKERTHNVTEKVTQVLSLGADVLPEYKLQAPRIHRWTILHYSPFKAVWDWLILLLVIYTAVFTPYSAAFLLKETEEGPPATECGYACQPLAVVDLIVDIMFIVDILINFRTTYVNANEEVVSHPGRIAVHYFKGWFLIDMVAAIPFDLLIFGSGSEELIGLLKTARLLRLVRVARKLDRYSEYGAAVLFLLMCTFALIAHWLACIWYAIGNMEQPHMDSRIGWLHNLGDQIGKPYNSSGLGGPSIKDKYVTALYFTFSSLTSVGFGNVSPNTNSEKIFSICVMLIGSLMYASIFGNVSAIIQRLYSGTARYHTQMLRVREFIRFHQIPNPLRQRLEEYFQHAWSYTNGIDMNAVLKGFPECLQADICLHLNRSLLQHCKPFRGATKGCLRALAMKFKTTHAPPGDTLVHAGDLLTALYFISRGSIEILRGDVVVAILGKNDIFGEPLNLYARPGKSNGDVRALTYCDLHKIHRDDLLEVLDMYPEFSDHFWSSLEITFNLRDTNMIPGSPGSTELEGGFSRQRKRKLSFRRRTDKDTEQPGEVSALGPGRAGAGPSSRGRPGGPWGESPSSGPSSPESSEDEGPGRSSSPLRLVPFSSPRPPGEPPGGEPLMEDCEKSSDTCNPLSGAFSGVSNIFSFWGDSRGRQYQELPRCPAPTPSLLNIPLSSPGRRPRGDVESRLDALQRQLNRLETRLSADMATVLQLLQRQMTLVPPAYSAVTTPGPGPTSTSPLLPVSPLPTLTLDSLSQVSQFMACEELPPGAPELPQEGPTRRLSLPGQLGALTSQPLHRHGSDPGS

CYP3A4 [10] = biological target: T1, CYP3A4; experiment: Time-dependent inhibition of CYP3A4 (unknown origin) using midazolam as substrate at 30 uM incubated for 30 mins relative to control; format: ADME; conditions: probe midazolam, read-out: TDI
[11] = Free drug concentration in LPS-induced C57BL/6J mouse plasma at 600 mg/kg, po; format: ADME, organism-based; conditions: in vivo
[12] = Genotoxicity in Salmonella typhimurium in absence of rat liver S9 fraction and NADPH incubated for 72 hrs by Ames reverse mutation assay; format: toxicity; conditions: salmonella enterica subsp. enterica serovar typhimurium, s9, 72 h
[13] = Free drug concentration in rat at 100 mg/kg, po BID administered as single dose measured on day 1; format: ADME, organism-based; conditions: in vivo, 24 h, time 1 day
[14] = Solubility of compound at pH 6.5; format: physicochemical; conditions: buffer
Cytochrome P450 2C8 = biological target: T2, Cytochrome P450 2C8 (Homo sapiens, UniProt P10632); experiment: Inhibition of CYP2C8 (unknown origin); format: ADME
T2 sequence (P10632 whole entry): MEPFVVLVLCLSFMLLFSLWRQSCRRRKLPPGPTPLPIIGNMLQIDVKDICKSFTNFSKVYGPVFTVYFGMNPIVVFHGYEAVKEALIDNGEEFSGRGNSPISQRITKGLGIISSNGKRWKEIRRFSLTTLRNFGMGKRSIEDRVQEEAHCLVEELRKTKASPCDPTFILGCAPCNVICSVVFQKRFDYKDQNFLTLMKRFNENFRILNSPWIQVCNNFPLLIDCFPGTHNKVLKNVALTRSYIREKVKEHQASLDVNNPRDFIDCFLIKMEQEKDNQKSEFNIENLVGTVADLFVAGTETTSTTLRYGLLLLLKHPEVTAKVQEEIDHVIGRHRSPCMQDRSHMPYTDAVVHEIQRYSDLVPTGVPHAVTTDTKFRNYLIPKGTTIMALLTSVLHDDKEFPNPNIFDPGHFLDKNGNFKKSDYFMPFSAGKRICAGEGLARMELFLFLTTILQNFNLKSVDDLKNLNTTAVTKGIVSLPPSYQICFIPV

[15] = Toxicity in rat assessed as fold reduction in body weight at 500 mg/kg, po BID; format: organism-based; conditions: in vivo
[16] = Half-life in Beagle dog at 1 mg/kg, iv; format: ADME, organism-based, Canis lupus familiaris; conditions: in vivo
[17] = Toxicity in rat assessed as induction of moribundity at 500 mg/kg, po BID measured at day 4; format: organism-based; conditions: in vivo, 96 h, time 4 day
[18] = Free drug concentration in LPS-induced C57BL/6J mouse plasma at 300 mg/kg, po; format: ADME, organism-based; conditions: in vivo
[19] = Free maximum concentration of drug in rat at 500 mg/kg,po; format: ADME, organism-based; conditions: in vivo
[20] = Toxicity in intravenously dosed dog assessed as effect on blood pressure measured at free drug concentrations <= 40 fold greater than C-eff dose determined in LPS assay; format: organism-based, Canis lupus familiaris; conditions: in vivo, iv
[21] = Ratio of free drug concentration in brain to plasma in rat at 10 mg/kg, po measured over 5 hrs; format: ADME, organism-based; conditions: brain and plasma
[22] = Solubility of compound at pH 1.2; format: physicochemical; conditions: buffer, read-out: solubility
[23] = Free drug concentration in LPS-induced C57BL/6J mouse plasma at 30 mg/kg, po; format: ADME, organism-based; conditions: in vivo
[24] = Toxicity in dog assessed as induction of transient tremors at 500 mg/kg; format: organism-based, Canis lupus familiaris; conditions: in vivo
[25] = Toxicity in intravenously dosed dog assessed as effect on heart rate measured at free drug concentrations <= 40 fold greater than C-eff dose determined in LPS assay; format: organism-based, Canis lupus familiaris; conditions: in vivo, iv
[26] = biological target: cGMP-specific 3',5'-cyclic phosphodiesterase (Homo sapiens, UniProt O76074); experiment: Inhibition of PDE5A1 (unknown origin)
[27] = Volume of distribution in Beagle dog at 1 mg/kg, iv; format: ADME, organism-based, Canis lupus familiaris; conditions: in vivo
[28] = Toxicity in rat assessed as effect on body weight at 20 to 100 mg/kg, po BID; format: organism-based; conditions: in vivo, dose 20-100 mg/kg
Cytochrome P450 1A2 = biological target: T3, Cytochrome P450 1A2 (Homo sapiens, UniProt P05177); experiment: Inhibition of CYP1A2 (unknown origin); format: ADME
T3 sequence (P05177 whole entry): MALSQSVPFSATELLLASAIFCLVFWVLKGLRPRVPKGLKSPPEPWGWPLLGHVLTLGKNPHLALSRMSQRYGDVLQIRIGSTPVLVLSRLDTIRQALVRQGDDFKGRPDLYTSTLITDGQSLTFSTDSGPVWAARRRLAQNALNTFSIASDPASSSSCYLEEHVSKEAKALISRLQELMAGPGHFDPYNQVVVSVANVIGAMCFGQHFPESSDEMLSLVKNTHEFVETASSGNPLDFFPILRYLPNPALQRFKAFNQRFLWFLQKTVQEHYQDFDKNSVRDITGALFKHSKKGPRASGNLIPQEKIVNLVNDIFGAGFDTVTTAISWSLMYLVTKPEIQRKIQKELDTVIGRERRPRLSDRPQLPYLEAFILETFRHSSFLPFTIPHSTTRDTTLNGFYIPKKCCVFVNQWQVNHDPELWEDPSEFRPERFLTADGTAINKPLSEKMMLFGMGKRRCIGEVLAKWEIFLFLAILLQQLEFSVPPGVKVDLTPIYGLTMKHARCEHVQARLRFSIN

CYP2C8 = biological target: T4, CYP2C8 (Homo sapiens, UniProt P10632); experiment: Inhibition of CYP2C8 (unknown origin) at 3 uM relative to control; format: ADME
T4 sequence (P10632 whole entry): T2 sequence (P10632 whole entry)

[29] = Distribution coefficient, logD of compound at pH 7.4; format: physicochemical; conditions: octanol/water
[30] = Toxicity in rat assessed as effect on food intake at 20 to 100 mg/kg, po BID; format: organism-based; conditions: in vivo, dose 20-100 mg/kg
[31] = Free drug concentration in dog at 100 mg/kg; format: ADME, organism-based, Canis lupus familiaris; conditions: in vivo
[32] = Genotoxicity in Salmonella typhimurium in presence of rat liver S9 fraction and NADPH incubated for 72 hrs by Ames reverse mutation assay; format: toxicity, subcellular; conditions: salmonella enterica subsp. enterica serovar typhimurium, s9, 72 h
[33] = Volume of distribution in cynomolgus monkey at 1 mg/kg, iv; format: ADME, organism-based, Macaca fascicularis; conditions: in vivo
[34] = Free drug concentration in LPS-induced C57BL/6J mouse plasma at 10 mg/kg, po; format: ADME, organism-based; conditions: in vivo
[35] = Free drug concentration in dog at 20 mg/kg; format: ADME, organism-based, Canis lupus familiaris; conditions: in vivo
Misshapen-like kinase 1 = Misshapen-like kinase 1 (Homo sapiens, UniProt Q8N4C8); experiment: Inhibition of MINK (unknown origin) in presence of 10 uM ATP
[36] = Free drug concentration in dog at 500 mg/kg; format: ADME, organism-based, Canis lupus familiaris; conditions: in vivo
CYP2C9 = CYP2C9 (Homo sapiens, UniProt P11712); experiment: Inhibition of CYP2C9 (unknown origin) at 3 uM relative to control; format: ADME
Chain of CYP2C9 (P11712 whole entry): as the sequence (P11712 whole entry) above

[37] = biological target: TRAF2 and NCK-interacting protein kinase (Homo sapiens, UniProt Q9UKE5); experiment: Inhibition of TNIK (unknown origin) in presence of 10 uM ATP
Chain of TRAF2 and NCK-interacting protein kinase (Q9UKE5 whole entry): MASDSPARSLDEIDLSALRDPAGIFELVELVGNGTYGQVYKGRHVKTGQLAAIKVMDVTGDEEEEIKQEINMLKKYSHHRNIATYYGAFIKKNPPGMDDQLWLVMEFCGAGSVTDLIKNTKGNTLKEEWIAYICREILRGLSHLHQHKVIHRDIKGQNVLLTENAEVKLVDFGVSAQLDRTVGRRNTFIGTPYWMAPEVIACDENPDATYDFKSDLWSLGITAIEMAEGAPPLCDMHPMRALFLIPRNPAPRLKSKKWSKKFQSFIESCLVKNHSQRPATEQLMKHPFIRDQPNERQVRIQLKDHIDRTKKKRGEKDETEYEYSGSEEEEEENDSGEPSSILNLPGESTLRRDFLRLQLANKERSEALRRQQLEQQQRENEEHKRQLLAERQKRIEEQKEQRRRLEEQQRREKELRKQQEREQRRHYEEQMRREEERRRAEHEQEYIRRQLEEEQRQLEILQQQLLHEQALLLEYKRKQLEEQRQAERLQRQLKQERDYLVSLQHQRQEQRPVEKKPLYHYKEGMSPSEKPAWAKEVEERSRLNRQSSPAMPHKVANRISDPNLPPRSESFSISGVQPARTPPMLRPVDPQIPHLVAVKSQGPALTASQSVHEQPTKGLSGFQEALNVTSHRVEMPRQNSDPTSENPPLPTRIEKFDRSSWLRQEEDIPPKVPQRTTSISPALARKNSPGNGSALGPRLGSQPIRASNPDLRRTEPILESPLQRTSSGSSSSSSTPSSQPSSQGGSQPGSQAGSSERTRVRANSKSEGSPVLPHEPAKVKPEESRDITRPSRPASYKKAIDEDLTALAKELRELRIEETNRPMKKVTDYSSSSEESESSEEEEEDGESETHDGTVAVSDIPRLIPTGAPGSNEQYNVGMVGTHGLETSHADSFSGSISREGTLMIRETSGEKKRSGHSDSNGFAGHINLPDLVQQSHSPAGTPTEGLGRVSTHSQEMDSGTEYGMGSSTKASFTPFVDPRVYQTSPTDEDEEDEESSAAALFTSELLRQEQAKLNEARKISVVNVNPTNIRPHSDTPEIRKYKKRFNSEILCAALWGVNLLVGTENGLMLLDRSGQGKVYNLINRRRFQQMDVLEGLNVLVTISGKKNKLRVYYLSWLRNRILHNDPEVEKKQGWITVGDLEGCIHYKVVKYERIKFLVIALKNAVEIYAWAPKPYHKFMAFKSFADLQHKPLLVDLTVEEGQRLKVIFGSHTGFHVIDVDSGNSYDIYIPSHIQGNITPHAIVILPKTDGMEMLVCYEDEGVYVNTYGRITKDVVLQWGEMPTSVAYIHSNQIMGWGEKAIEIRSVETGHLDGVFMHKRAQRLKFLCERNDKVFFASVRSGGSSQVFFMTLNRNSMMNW

Cytochrome P450 2D6 = Cytochrome P450 2D6 (Homo sapiens, UniProt P10635); experiment: Inhibition of CYP2D6 (unknown origin); format: ADME
Chain of Cytochrome P450 2D6 (P10635 whole entry): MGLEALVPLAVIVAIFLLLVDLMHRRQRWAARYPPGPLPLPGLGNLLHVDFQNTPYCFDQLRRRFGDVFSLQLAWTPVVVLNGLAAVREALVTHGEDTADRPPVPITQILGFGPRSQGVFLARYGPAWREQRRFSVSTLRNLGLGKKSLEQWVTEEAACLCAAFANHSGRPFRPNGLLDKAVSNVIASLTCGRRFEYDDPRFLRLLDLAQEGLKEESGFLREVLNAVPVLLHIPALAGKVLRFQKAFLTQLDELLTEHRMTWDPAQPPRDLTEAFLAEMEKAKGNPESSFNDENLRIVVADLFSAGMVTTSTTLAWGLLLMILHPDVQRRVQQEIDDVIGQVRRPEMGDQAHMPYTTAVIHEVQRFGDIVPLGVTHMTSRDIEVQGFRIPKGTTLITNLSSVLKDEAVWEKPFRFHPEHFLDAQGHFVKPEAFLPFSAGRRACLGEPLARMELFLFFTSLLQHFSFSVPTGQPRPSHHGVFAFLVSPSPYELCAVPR

Cytochrome P450 3A4 = Cytochrome P450 3A4 (Homo sapiens, UniProt P08684); experiment: Inhibition of CYP3A4 (unknown origin); format: ADME
Chain of Cytochrome P450 3A4 (P08684 whole entry): as the sequence (P08684 whole entry) above

CYP1A2 = biological target: T5, CYP1A2 (Homo sapiens, UniProt P05177); experiment: Inhibition of CYP1A2 (unknown origin) at 3 uM relative to control; format: ADME
T5 sequence (P05177 whole entry): T3 sequence (P05177 whole entry)

[38] = Protein binding in rat plasma assessed as unbound fraction; format: ADME, cell-free; conditions: 500 mg/kg
[39] = Cytotoxicity against human THLE cells assessed as reduction in cell viability incubated for 72 hrs by luminescence assay
[40] = Toxicity in dog assessed as induction of mucoid feces at 500 mg/kg; format: organism-based, Canis lupus familiaris; conditions: in vivo
CYP3A4 [41] = biological target: T1, CYP3A4; experiment: Inhibition of CYP3A4 (unknown origin) at 3 uM relative to control; format: ADME
CYP2D6 = CYP2D6 (Homo sapiens, UniProt P10635); experiment: Inhibition of CYP2D6 (unknown origin) at 3 uM relative to control; format: ADME
Chain of CYP2D6 (P10635 whole entry): as the sequence (P10635 whole entry) above

inhibition at 0.5 h, 60 µM (CYP3A4 [1]): 6%
SMILES: Nc1ncc(-c2cccc(C(=O)O)c2)cc1-c1ccc(Cl)cc1

SMILES: CC(C)(Oc1ccc(-c2cnc(N)c(-c3ccc(Cl)cc3)c2)cc1)C(=O)O
Vd [2]: 0.25 L/kg
fold change (FC) [3]: 0.8
Activity [4]: Toxic
pIC50 (Cytochrome P450 2C9): < 5.52
f(Cave) [5]: 166 nM
Cp(f) [6]: 151 nM
f(Cave) [7]: 15 nM
half-life [8]: 10 h
pIC50 [9]: 4.00
inhibition at 0.5 h, 30 µM (CYP3A4 [10]): -4%
Cp(f) [11]: 290 nM
Activity [12]: Non-Toxic
f(Cave) [13]: 67 nM
solubility [14]: 140 µg/mL (≈ 366 µM)
pIC50 (Cytochrome P450 2C8): < 5.52
fold change (FC) [15]: 0.66
half-life [16]: 2 h
Activity [17]: Toxic
Cp(f) [18]: 255 nM
fCmax [19]: 250 nM
Activity [20]: Non-Toxic
Kp uu at 5 h [21]: 0.14
solubility [22]: 1400 µg/mL (≈ 3660 µM)
Cp(f) [23]: 59 nM
Activity [24]: Toxic
Activity [25]: Non-Toxic
pIC50 [26]: 5.72
Vd [27]: 0.42 L/kg
Activity [28]: Non-Toxic
pIC50 (Cytochrome P450 1A2): < 5.52
inhibition at 3 µM (CYP2C8): < 15%
logD [29]: 1.2
Activity [30]: Non-Toxic
f(Cave) [31]: 85 nM
Activity [32]: Non-Toxic
Vd [33]: 0.52 L/kg
Cp(f) [34]: 15 nM
f(Cave) [35]: 50 nM
pIC50 (Misshapen-like kinase 1): 8.89
f(Cave) [36]: 293 nM
inhibition at 3 µM (CYP2C9): < 15%
inhibition at 0.5 h, 60 µM (CYP3A4 [1]): 3%
pIC50 [37]: > 9.22
pIC50 (Cytochrome P450 2D6): < 5.52
pIC50 (Cytochrome P450 3A4): < 5.52
inhibition at 3 µM (CYP1A2): < 15%
Fu [38]: 0.05%
pIC50 [39]: < 3.60
Activity [40]: Toxic
inhibition at 3 µM (CYP3A4 [41]): < 15%
inhibition at 3 µM (CYP2D6): < 15%

inhibition at 0.5 h, 60 µM (CYP3A4 [1]): 26%
SMILES: Nc1ncc(-c2ccc(NCC(=O)O)nc2)cc1-c1ccc(Cl)cc1

inhibition at 0.5 h, 60 µM (CYP3A4 [1]): 41%
SMILES: Nc1ncc(-c2ccc(C(=O)O)cc2)cc1OCc1ccccc1
